Source: ChEMBL document CHEMBL1201862, “PubChem BioAssay data set” (2004)
Active and inactive are the calls of the source. Cut-off read from the data, not from the text of the source, for most assays here: actives have a measured IC50 and inactives only a lower limit.

Tests used:
[1] = target: T1, Caspase-3 (Homo sapiens, UniProt P42574); format: functional;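 note: Dose-response selectivity test against caspase-3 for candidate inhibitors of sentrin-specific proteases (SENPs)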
T1 sequence (P42574 whole entry): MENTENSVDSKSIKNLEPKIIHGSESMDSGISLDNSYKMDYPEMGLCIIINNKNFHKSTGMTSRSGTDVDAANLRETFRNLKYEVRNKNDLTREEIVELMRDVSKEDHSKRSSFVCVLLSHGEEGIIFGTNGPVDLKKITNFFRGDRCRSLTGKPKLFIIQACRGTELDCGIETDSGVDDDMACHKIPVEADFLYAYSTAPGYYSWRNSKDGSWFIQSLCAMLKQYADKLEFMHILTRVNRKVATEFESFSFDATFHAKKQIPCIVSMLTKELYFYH

[2] = target: T2, Sentrin-specific protease 7 (Homo sapiens, UniProt Q9BQF6); format: functional;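 note: Luminescence-based dose-response confirmation of ultra-high-throughput screening hits, measuring inhibition of SENP7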
T2 sequence (Q9BQF6 whole entry): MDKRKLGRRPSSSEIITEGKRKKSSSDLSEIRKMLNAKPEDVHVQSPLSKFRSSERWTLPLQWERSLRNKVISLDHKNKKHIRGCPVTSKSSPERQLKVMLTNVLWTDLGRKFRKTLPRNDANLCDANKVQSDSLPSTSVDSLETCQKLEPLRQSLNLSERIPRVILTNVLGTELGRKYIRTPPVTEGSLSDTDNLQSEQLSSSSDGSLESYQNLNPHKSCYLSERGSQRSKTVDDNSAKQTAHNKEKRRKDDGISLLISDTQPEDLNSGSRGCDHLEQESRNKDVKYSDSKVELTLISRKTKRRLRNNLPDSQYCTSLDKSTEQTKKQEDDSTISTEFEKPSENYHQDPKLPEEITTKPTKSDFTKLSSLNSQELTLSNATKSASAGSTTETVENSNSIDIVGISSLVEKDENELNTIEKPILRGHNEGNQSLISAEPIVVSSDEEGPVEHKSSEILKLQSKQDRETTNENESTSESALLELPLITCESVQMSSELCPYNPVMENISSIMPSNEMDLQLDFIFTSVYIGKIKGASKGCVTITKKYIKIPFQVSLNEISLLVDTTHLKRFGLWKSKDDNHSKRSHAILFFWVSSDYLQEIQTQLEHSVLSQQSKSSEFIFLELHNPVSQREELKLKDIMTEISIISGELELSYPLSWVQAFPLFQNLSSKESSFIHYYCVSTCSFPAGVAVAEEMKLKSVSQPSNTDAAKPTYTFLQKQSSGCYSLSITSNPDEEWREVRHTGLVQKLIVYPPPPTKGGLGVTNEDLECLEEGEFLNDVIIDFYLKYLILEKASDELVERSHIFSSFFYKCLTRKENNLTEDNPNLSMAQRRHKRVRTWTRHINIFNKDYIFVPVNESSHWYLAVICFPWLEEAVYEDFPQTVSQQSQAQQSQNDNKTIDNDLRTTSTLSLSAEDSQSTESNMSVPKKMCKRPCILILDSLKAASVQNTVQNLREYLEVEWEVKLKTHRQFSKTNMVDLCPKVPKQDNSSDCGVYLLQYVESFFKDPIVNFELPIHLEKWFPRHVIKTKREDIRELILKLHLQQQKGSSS

[3] = target: T3, Sentrin-specific protease 6 (Homo sapiens, UniProt Q9GZR1); format: functional;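 note: Luminescence-based dose-response confirmatory assay of SENP6 inhibition, following up an ultra-high-throughput screen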
T3 sequence (Q9GZR1 whole entry): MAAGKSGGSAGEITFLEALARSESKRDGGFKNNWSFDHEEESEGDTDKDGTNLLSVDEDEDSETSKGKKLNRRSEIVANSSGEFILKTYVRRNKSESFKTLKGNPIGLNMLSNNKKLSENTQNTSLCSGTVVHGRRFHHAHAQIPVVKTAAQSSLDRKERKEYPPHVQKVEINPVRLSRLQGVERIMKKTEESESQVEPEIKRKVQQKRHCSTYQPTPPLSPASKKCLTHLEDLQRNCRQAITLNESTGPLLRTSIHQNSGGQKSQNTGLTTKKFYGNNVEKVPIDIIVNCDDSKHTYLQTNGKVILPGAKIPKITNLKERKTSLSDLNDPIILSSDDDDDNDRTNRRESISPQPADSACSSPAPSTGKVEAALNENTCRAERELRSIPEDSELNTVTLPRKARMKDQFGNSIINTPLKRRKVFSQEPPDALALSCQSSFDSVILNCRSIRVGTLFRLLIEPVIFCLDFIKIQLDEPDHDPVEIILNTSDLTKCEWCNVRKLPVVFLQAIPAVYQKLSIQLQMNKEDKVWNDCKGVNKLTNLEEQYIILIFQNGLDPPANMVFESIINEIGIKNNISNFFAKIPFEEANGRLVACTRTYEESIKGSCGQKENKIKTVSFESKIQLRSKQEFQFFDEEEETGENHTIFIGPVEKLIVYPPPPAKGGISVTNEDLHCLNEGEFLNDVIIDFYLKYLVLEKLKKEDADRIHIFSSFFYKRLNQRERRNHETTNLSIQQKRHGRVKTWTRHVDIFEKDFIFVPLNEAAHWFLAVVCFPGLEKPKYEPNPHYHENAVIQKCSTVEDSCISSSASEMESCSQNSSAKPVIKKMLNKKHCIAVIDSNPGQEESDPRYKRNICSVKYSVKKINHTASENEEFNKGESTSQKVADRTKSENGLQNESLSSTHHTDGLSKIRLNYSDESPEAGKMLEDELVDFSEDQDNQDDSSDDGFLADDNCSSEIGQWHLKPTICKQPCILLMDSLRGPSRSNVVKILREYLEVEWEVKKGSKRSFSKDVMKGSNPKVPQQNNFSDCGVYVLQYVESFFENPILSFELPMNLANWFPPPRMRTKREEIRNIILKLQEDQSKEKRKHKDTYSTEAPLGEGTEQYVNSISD

[4] = target: T4, Sentrin-specific protease 8 (Homo sapiens, UniProt Q96LD8); format: functional;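 note: luminescence read-out of SENP8 inhibition, dose-response confirmation following an ultra-high-throughput screen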
T4 sequence (Q96LD8 whole entry): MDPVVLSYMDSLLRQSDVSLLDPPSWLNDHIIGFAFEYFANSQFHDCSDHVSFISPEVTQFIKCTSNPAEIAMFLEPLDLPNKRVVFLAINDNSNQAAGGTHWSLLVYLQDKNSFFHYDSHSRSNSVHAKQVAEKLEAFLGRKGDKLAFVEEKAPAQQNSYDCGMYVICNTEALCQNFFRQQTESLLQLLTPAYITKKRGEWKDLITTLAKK

[5] = HEK293 cell cytotoxicity, dose response, cytotoxicity control, plate reader, cherry-picked samples (AID 743446); format: functional, cell-based

SMILES	IC50 [1]	IC50 [2]	IC50 [3]	IC50 [4]	AC50 [5]
O=c1[nH]c(N2CCOCC2)cc2ccccc12	1.59 µM (active)	1.96 µM (active)	< 1.55 µM (active)	2.12 µM (active)	
O=[N+]([O-])c1ccc(Sc2nc3ccccc3o2)c([N+](=O)[O-])c1					8.49 µM (active)
CCC(COC)Oc1cc(NCc2ccccc2)c2ncn(C(C)C)c2c1 (centres undefined)	6.47 µM (active)	5.61 µM (active)	3.62 µM (active)	4.26 µM (active)	30.4 µM (active)
O=C1c2ccccc2C(=O)C12OC2c1cccc2ccccc12 (centres undefined)	91.9 µM (active)	2.86 µM (active)	2.37 µM (active)	4.53 µM (active)	
